Source: ChEMBL document CHEMBL1201862, “PubChem BioAssay data set” (2004)
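Cells were grown in 96-well plates and exposed to each compound for 48 hours at five concentrations; endpoints were interpolated linearly between bracketing concentrations, or set to the highest concentration if not reached. At the GI50, growth is halved.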 Activity calls are given as the source filed them. No stated cut-off is given here; in the data, active = GI50 up to about 1.1 µM and inactive = higher.

What was measured:
Test in all cases: inhibition of tumour cell growth, NCI panel, 48 h
K562 = tested on: K562
ACHN = tested on: ACHN
HCC 2998 = tested on: HCC 2998
SF-295 = tested on: SF-295
SK-OV-3 = tested on: SK-OV-3
SNB-78 = tested on: SNB-78
SK-MEL-2 = tested on: SK-MEL-2
EKVX = tested on: EKVX
M14 = tested on: M14
SR = tested on: SR
SNB-75 = tested on: SNB-75
SF-268 = tested on: SF-268
U-251 = tested on: U-251
HCT-116 = tested on: HCT-116
A498 = tested on: A498
HCT-15 = tested on: HCT-15
SK-MEL-5 = tested on: SK-MEL-5
HOP-92 = tested on: HOP-92
UACC-62 = tested on: UACC-62
MOLT-4 = tested on: MOLT-4
Malme-3M = tested on: Malme-3M
TK-10 = tested on: TK-10
IGROV-1 = tested on: IGROV-1
A549 = tested on: A549
RXF 631 = tested on: RXF 631
SW-620 = tested on: SW-620
DMS-114 = tested on: DMS-114
OVCAR-5 = tested on: OVCAR-5
HL-60 = tested on: HL-60
XF498 = tested on: XF498
HOP-18 = tested on: HOP-18
786-0 = tested on: 786-0
RXF 393 = tested on: RXF 393
UO-31 = tested on: UO-31
LXFL 529 = tested on: LXFL 529
DMS-273 = tested on: DMS-273
HT-29 = tested on: HT-29
OVCAR-3 = tested on: OVCAR-3
NCI-H23 = tested on: NCI-H23
SF-539 = tested on: SF-539
SNB-19 = tested on: SNB-19
M19-MEL = tested on: M19-MEL
LOX IMVI = tested on: LOX IMVI
KM12 = tested on: KM12
HOP-62 = tested on: HOP-62
CAKI-1 = tested on: CAKI-1
NCI-H460 = tested on: NCI-H460
SK-MEL-28 = tested on: SK-MEL-28
CCRF-CEM = tested on: CCRF-CEM
RPMI-8226 = tested on: RPMI-8226
OVCAR-4 = tested on: OVCAR-4
UACC-257 = tested on: UACC-257
OVCAR-8 = tested on: OVCAR-8
DLD-1 = tested on: DLD-1
KM-20L2 = tested on: KM-20L2
COLO 205 = tested on: COLO 205
SN12C = tested on: SN12C

With CCCSS[C@H]1NC(=O)[C@H]1NC(=O)COc1ccccc1 the GI50 (K562) was 6.19 µM (inactive), the GI50 (ACHN) was 16.6 µM (inactive) and the GI50 (HCC 2998) was 15.5 µM (inactive). The GI50 (SF-295) was 41.9 µM (inactive), the GI50 (SK-OV-3) was > 100 µM (inactive) and the GI50 (SNB-78) was 25.8 µM (inactive). For the same compound, the GI50 (SK-MEL-2) was 17.9 µM (inactive), the GI50 (EKVX) was 20.6 µM (inactive) and the GI50 (M14) was 12 µM (inactive). For the same compound, the GI50 (SR) was 3.16 µM (inactive), the GI50 (SNB-75) was 21.1 µM (inactive) and the GI50 (SF-268) was 20 µM (inactive). The GI50 (U-251) was 17.7 µM (inactive), the GI50 (HCT-116) was 10.3 µM (inactive) and the GI50 (A498) was 24.8 µM (inactive). The GI50 (HCT-15) was 11.7 µM, the GI50 (SK-MEL-5) was 22.8 µM (inactive) and the GI50 (HOP-92) was 10.4 µM (inactive). For the same compound, the GI50 (UACC-62) was 17.9 µM (inactive), the GI50 (MOLT-4) was 1.28 µM (inactive) and the GI50 (Malme-3M) was 13.8 µM (inactive). The GI50 (TK-10) was 27.9 µM (inactive), the GI50 (IGROV-1) was 21.1 µM (inactive) and the GI50 (A549) was 24.4 µM (inactive). For the same compound, the GI50 (RXF 631) was 17.5 µM (inactive), the GI50 (SW-620) was 5.74 µM (inactive) and the GI50 (DMS-114) was 19 µM (inactive). The GI50 (OVCAR-5) was 59 µM (inactive), the GI50 (HL-60) was 2.6 µM (inactive) and the GI50 (XF498) was 17.8 µM (inactive). For the same compound, the GI50 (HOP-18) was 28 µM (inactive), the GI50 (786-0) was 17.4 µM (inactive) and the GI50 (RXF 393) was 16.1 µM (inactive). For the same compound, the GI50 (UO-31) was 32.5 µM (inactive), the GI50 (LXFL 529) was 5.66 µM (inactive) and the GI50 (DMS-273) was 17.4 µM (inactive). The GI50 (HT-29) was 19.8 µM (inactive), the GI50 (OVCAR-3) was 17.3 µM (inactive) and the GI50 (NCI-H23) was 17.7 µM (inactive). For the same compound, the GI50 (SF-539) was 15.3 µM (inactive), the GI50 (SNB-19) was > 100 µM (inactive) and the GI50 (M19-MEL) was 17.9 µM (inactive). For the same compound, the GI50 (LOX IMVI) was 16.4 µM (inactive), the GI50 (KM12) was 17.2 µM (inactive) and the GI50 (HOP-62) was > 100 µM (inactive). The GI50 (CAKI-1) was 17.3 µM (inactive), the GI50 (NCI-H460) was 17.6 µM (inactive) and the GI50 (SK-MEL-28) was 16.6 µM (inactive). For the same compound, the GI50 (CCRF-CEM) was 3.85 µM (inactive), the GI50 (RPMI-8226) was 14 µM (inactive) and the GI50 (OVCAR-4) was 17.3 µM (inactive). For the same compound, the GI50 (UACC-257) was 14.4 µM (inactive), the GI50 (OVCAR-8) was 13.9 µM (inactive) and the GI50 (DLD-1) was 11.1 µM (inactive). The GI50 (KM-20L2) was 20.9 µM (inactive), the GI50 (COLO 205) was 12.3 µM (inactive) and the GI50 (SN12C) was 15.1 µM (inactive).

In the case of COc1c(Sc2ccccc2)cc(Sc2ccccc2)c2cccnc12, the GI50 (K562) is reported as 23.7 µM (inactive), the GI50 (ACHN) is reported as 26.8 µM (inactive) and the GI50 (HCC 2998) is reported as 41.9 µM (inactive). For the same compound, the GI50 (SF-295) was 17.3 µM (inactive), the GI50 (SK-OV-3) was > 100 µM (inactive) and the GI50 (SNB-78) was 34 µM (inactive). The GI50 (SK-MEL-2) was 17.6 µM (inactive), the GI50 (EKVX) was 28.2 µM (inactive) and the GI50 (M14) was 27 µM (inactive). For the same compound, the GI50 (SNB-75) was 19.5 µM (inactive), the GI50 (SF-268) was 37.3 µM (inactive) and the GI50 (U-251) was 29.2 µM (inactive). For the same compound, the GI50 (HCT-116) was 28.9 µM (inactive), the GI50 (A498) was 29.1 µM (inactive) and the GI50 (HCT-15) was 15.4 µM. For the same compound, the GI50 (SK-MEL-5) was 16.4 µM (inactive), the GI50 (UACC-62) was 18.2 µM (inactive) and the GI50 (MOLT-4) was 19.5 µM (inactive). For the same compound, the GI50 (Malme-3M) was 15.1 µM (inactive), the GI50 (TK-10) was 23.2 µM (inactive) and the GI50 (IGROV-1) was 46.1 µM (inactive). The GI50 (A549) was 24 µM (inactive), the GI50 (RXF 631) was 27.9 µM (inactive) and the GI50 (SW-620) was 39.2 µM (inactive). The GI50 (DMS-114) was 24.1 µM (inactive), the GI50 (OVCAR-5) was 40.2 µM (inactive) and the GI50 (XF498) was 17.7 µM (inactive). The GI50 (HOP-18) was 0.0263 µM (active), the GI50 (786-0) was 20.2 µM (inactive) and the GI50 (RXF 393) was 11.8 µM (inactive). For the same compound, the GI50 (UO-31) was 19.1 µM (inactive), the GI50 (LXFL 529) was 30.8 µM (inactive) and the GI50 (DMS-273) was 20 µM (inactive). For the same compound, the GI50 (HT-29) was 24.9 µM (inactive), the GI50 (OVCAR-3) was 20.9 µM (inactive) and the GI50 (NCI-H23) was 19.5 µM (inactive). The GI50 (SF-539) was 26.2 µM (inactive), the GI50 (SNB-19) was 31.8 µM (inactive) and the GI50 (M19-MEL) was 28.9 µM (inactive). The GI50 (LOX IMVI) was 17.6 µM (inactive), the GI50 (KM12) was 24.4 µM (inactive) and the GI50 (HOP-62) was 34.9 µM (inactive). The GI50 (CAKI-1) was 12.9 µM (inactive), the GI50 (NCI-H460) was 20.2 µM (inactive) and the GI50 (SK-MEL-28) was 35.9 µM (inactive). The GI50 (CCRF-CEM) was 20 µM (inactive), the GI50 (RPMI-8226) was 17.6 µM (inactive) and the GI50 (OVCAR-4) was 16.2 µM (inactive). For the same compound, the GI50 (UACC-257) was 18.2 µM (inactive), the GI50 (OVCAR-8) was 27.4 µM (inactive) and the GI50 (DLD-1) was 27.9 µM (inactive). For the same compound, the GI50 (KM-20L2) was 21.2 µM (inactive), the GI50 (COLO 205) was 19.6 µM (inactive) and the GI50 (SN12C) was 28.2 µM (inactive).
